The term IC50 denotes the point on the concentration scale where inhibition reaches its midpoint. One may read the AUC as concentration integrated over time. By half-life is commonly meant the time in which the quantity being followed falls by half. As a reminder, the MRT is the average time that molecules of a dose stay in the body. As usually defined, the Cmax is the highest concentration seen after dosing.

Where two headings read alike, the source gives them in different places.

Data on 8 compounds can be found in US9586947B2, “Imidazoline derivatives, preparation methods thereof, and their applications in medicine” (priority 2012, dated 2017).

Series [1] has as its system PSA secretion of LNCaP-AR cells (AR-overexpressed LNCaP cells). Kind of series: Agonist activity on PSA secretion of LNCaP-AR cells. In kind it is cell-based. Conditions: 96 h, 4 days, OD value (test compounds)/OD value (blank control), blank control 100. As to the method:
The following in vitro assay was performed to determine the activity of a high concentration of the compounds of the present invention for agitating the PSA secretion of LNCaP-AR cells (AR-overexpressed LNCaP cells, referred to as “LNCaP-AR cells” for short, constructed by a retroviral transfection method).
LNCaP-AR cells were subcultured in cell culture medium, resuspended in active carbon culture medium, and then inoculated into a 96-well plate (100 μl/well) with an inoculation density of 5×10^4 cells/well.
The test compounds were dissolved in DMSO (dimethyl sulfoxide) and prepared as a 10 mM stock solution. When used, the stock solution was diluted with DMSO into the two concentrations of 2 mM and 0.6 mM. Then, the diluted concentrations were each diluted with 20× active carbon culture medium, in order to ensure DMSO concentration in each culture system was 0.5%. Diluted test compounds remained to be tested.
10 μl of diluted test compounds were added to a 96-well plate and mixed gently. 10 μl of 0.5% DMSO diluted with active carbon culture medium was added to the blank control group.
After 4 days of incubation, 60 μl of cell cultural supernatants were collected, and the OD value of PSA per well was measured on a NOVO Star microplate reader using PSA kit (abnova, KA0208).
Agonist activity of the test compounds of the present invention on PSA secretion of LNCaP-AR cells was evaluated by the percentage of OD value (test compounds)/OD value (blank control). When the percentage value is greater than 100, the test compounds have agonist activity on PSA secretion of LNCaP-AR cells compared to the blank control. Conversely, when the percentage value is less than 100, the test compounds have no agonist activity on PSA secretion of LNCaP-AR cells compared to the blank control.

The next series concerns LNCaP cells. The series can be described thus: Proliferation inhibition of LNCaP cells (CCK-8). In kind it is cell-based. Conditions: Homo sapiens, 144 h, cultured 3 + 3 days, CCK-8, OD at 450 nm. Here is the method:
The following in vitro assay was performed to determine the activity of the compounds of the present invention for inhibiting the proliferation of LNCaP cells.
(1). Cell counting reagent CCK-8 (DOJINDO, CK04)
See experimental procedure from Test Example 1.
After LNCaP cells were cultured for 3 days, the culture medium, test compounds, blank group, and control group were renewed with half of the liquid volume, and were cultured for another 3 days. Then, all 96-well plates were mixed gently with 10 μl of CCK-8 and cultured in an incubator for 2-3 hours under the conditions of 37° C. and 5% CO2. The OD value per well was measured at 450 nm on a Victor3 microplate reader.
(§1) IC50 values were calculated from the data of the inhibition rates of the test compounds at various concentrations.

Series [2] deals with PSA secretion of LNCaP cells. Kind of series: Inhibitory activity on PSA secretion of LNCaP cells. Conditions: Homo sapiens, 96 h, read-out: IC50 (inhibition of PSA secretion of LNCaP cells). In kind it is cell-based. As to the method: The following in vitro assay was performed to determine the activity of the compounds of the present invention for inhibiting prostate specific antigen (PSA) secretion of LNCaP cells.
(11). Testosterone culture medium: RIPM 1640 culture medium, 10% CS-FBS, 1% Pen Strep, 1 nM testosterone
LNCaP cells were subcultured in cell culture medium, resuspended in active carbon culture medium, and then inoculated into a 96-well plate (100 μl/well) with an inoculation density of 5×10^4 cells/well.
The test compounds were dissolved in DMSO (dimethyl sulfoxide) and prepared as a 10 mM stock solution. When used, the stock solution was diluted with 5×DMSO and then diluted with a threefold gradient to obtain 8 gradient concentrations. Then, the 8 gradient concentrations were each diluted with 20× testosterone culture medium, in order to ensure DMSO concentration in each culture system was 0.5%. Diluted test compounds remained to be tested.
10 μl of diluted test compounds were added to a 96-well plate and mixed gently. 10 μl of 0.5% DMSO diluted with active carbon culture medium was added to the blank group, and 10 μl of 0.5% DMSO diluted with testosterone culture medium was added to the control group. The 96-well plate was cultured in an incubator under the conditions of 37° C. and 5% CO2.
After 4 days of incubation, 60 μl of cell cultural supernatants were collected, and the OD450 value per well was measured on a NOVO Star microplate reader using PSA kit (Abnova, KA0208).
as §1

A short description of series [3]: Pharmacokinetics assay in rats, intragastric administration. In kind it is in vivo. Particulars: Sprague-Dawley, rat, po, male SD rats, 5 mg/kg; for Vd/F: read-out: Apparent Distribution Volume Vz/F; for AUC: read-out: Area Under Curve AUC; for CL/F: read-out: Clearance CLz/F; for half-life: read-out: Half-Life T½ (converted); for MRT: read-out: Mean Residence Time MRT; for Cmax: read-out: Plasma Conc. Cmax. Here is the method:
Male rats were used as test animals. The compounds of Example 6, Example 9, Example 11, Example 13, Example 15, Example 16, Example 17, Example 44, and Example 45 were administered intragastrically to rats to determine the drug concentration in plasma at different time points by LC/MS/MS method. The pharmacokinetic behavior of the compounds of the present invention was studied and evaluated in rats.
27 healthy adult male Sprague-Dawley (SD) rats, purchased from SINO-BRITISH SIPPR/BK LAB. ANIMAL LTD., CO, Certificate No.: SCXK (Shanghai) 2008-0016, were divided into 9 groups, with 3 rats in each group.
The appropriate amount of test compounds was weighed and mixed with 0.5% CMC-Na to prepare a 0.5 mg/mL suspension by an ultrasonic method.
After an overnight fast, 27 SD rats were divided into 9 groups, and administered the compounds intragastrically at a dose of 5.0 mg/kg and an administration volume of 10 mL/kg.
Compounds of Example 6, Example 9, Example 11, Example 13, Example 15, Example 16, Example 17, Example 44, and Example 45 were administered intragastrically to rats. Blood samples (0.1 mL) were taken from the orbital sinus before administration, and at 0.5 h, 1.0 h, 2.0 h, 3.0 h, 4.0 h, 6.0 h, 8.0 h, 11.0 h, and 24.0 h after administration, stored in heparinized tubes, and centrifuged for 5 minutes at 3,500 rpm to separate blood plasma. The plasma samples were stored at −20° C. The rats were fed 2 hours after administration.
The concentration of the different test compounds in rat plasma after intragastrically administering the test compounds was determined by LC-MS/MS method. The linearity of the method is 1.00-2000 ng/ml. Plasma samples were analyzed after protein precipitation was accomplished by the addition of methanol.

Setting [4] is: LNCaP cells, 1 nM testosterone medium, 4 days of incubation, PSA kit OD450.

As for `CC1(C)C(=O)N(c2ccc(C#N)c(C(F)(F)F)c2)C(=S)N1c1ccc(OCCO)c(F)c1` [Example 12, 4-(3-(3-Fluoro-4-(2-hydroxyethoxy)phenyl)-4,4-dimethyl-5-oxo-2-thioxoimidazolidin-1-yl)-2-(trifluoromethyl)benzonitrile], in series [1], the activity at 3 µM was 69.6% and the activity at 10 µM is 90.7%. Moreover, the IC50 in the series on LNCaP cells was 146 nM. For the same compound, the IC50 in series [2] (setting [4]) came to 33 nM.
In series [1], `CC1(C)C(=O)N(c2ccc(C#N)c(C(F)(F)F)c2)C(=S)N1c1ccc(O[C@H]2COC[C@@H]2O)c(F)c1` [Example 9, 4-(3-(3-fluoro-4-(((3S,4S)-4-hydroxytetrahydrofuran-3-yl)oxy)phenyl)-4,4-dimethyl-5-oxo-2-thioxoimidazolidin-1-yl)-2-(trifluoromethyl)benzonitrile] showed an activity at 3 µM of 90.8% and an activity at 10 µM of 85%. Also, in series [3] (in vivo), the Vd/F amounted to 4.59 ± 0.556 L/kg, the area under the curve (AUC) worked out at 18800 ± 3300 ng·h/mL, the CL/F came out at 4.52 ± 0.77 mL/min/kg and the half-life is 11.8 ± 1.1 h. Moreover, in series [3] (in vivo), the MRT was found to be 18.3 ± 1.9 h and the Cmax was determined as 772 ± 83 ng/mL. Also, in series [2] (LNCaP), the half-maximal inhibitory concentration (IC50) stood at 26 nM.
Regarding `CC1(C)C(=O)N(c2ccc(C#N)c(C(F)(F)F)c2)C(=S)N1c1ccc(OC[C@H](O)CO)cc1` [Example 45, (R)-4-(3-(4-(2,3-Dihydroxypropoxy)phenyl)-4,4-dimethyl-5-oxo-2-thioxoimidazolidin-1-yl)-2-(trifluoromethyl)benzonitrile], in the series on LNCaP cells, the concentration for half-maximal inhibition (IC50) worked out at 74 nM. Further, in series [3] (plasma), the Vd/F came to 3.27 ± 0.261 L/kg, the AUC came to 13000 ± 365 ng·h/mL, the CL/F came to 6.4 ± 0.18 mL/min/kg and the half-life was 5.9 ± 0.3 h. In series [3] (plasma), the MRT amounted to 10 ± 0.6 h and the maximum concentration (Cmax) came to 980 ± 173 ng/mL. Besides, the half-inhibitory concentration (IC50) in series [2] (setting [4]) stood at 35 nM.
In series [1], `CC1(C)C(=O)N(c2ccc(C#N)c(C(F)(F)F)c2)C(=S)N1c1ccc(O[C@@H]2COC[C@H]2O)cc1` [Example 15, 4-(3-(4-(((3R,4R)-4-hydroxytetrahydrofuran-3-yl)oxy)phenyl)-4,4-dimethyl-5-oxo-2-thioxoimidazolidin-1-yl)-2-(trifluoromethyl)benzonitrile] gave an activity at 3 µM of 77.5% and an activity at 10 µM of 84.8%. Further, in series [3] (in vivo), the Vd/F came out at 3.97 ± 0.341 L/kg, the exposure (AUC) was 21400 ± 4100 ng·h/mL, the CL/F came to 3.99 ± 0.75 mL/min/kg and the half-life is 11.7 ± 1.7 h. Besides, in series [3] (in vivo), the MRT was 18.2 ± 2.3 h and the Cmax amounted to 999 ± 172 ng/mL. Further, the IC50 in series [2] (LNCaP) is 52 nM.
On to `CC1(C)C(=O)N(c2ccc(C#N)c(C(F)(F)F)c2)C(=S)N1c1ccc(OCCO)nc1` [Example 10, 4-(3-(6-(2-Hydroxyethoxy)pyridin-3-yl)-4,4-dimethyl-5-oxo-2-thioxoimidazolidin-1-yl)-2-(trifluoromethyl)benzonitrile], for which, in series [1], the activity at 3 µM is 74.7% and the activity at 10 µM was 68.1%. In the series on LNCaP cells, the IC50 is 131 nM. Further, in series [2] (setting [4]), the IC50 is 23 nM.
In series [1], `CC1(C)C(=O)N(c2ccc(C#N)c(C(F)(F)F)c2)C(=S)N1c1ccc(OCC(O)CO)c(F)c1` (stereo not shown) [Example 13, 4-(3-(4-(2,3-Dihydroxypropoxy)-3-fluorophenyl)-4,4-dimethyl-5-oxo-2-thioxoimidazolidin-1-yl)-2-(trifluoromethyl)benzonitrile] had an activity at 3 µM of 53.6% and an activity at 10 µM of 71.5%. For the same compound, in series [3] (in vivo), the Vd/F came to 2.31 ± 0.553 L/kg, the exposure (AUC) stood at 26500 ± 7380 ng·h/mL, the CL/F was determined as 3.35 ± 1.1 mL/min/kg and the half-life is 8.1 ± 0.65 h. For the same compound, in series [3] (in vivo), the mean residence time MRT is 13.1 ± 1.5 h and the Cmax was determined as 1550 ± 197 ng/mL. Also, in series [2] (LNCaP), the IC50 is 88 nM.
Regarding `CC1(C)C(=O)N(c2ccc(C#N)c(C(F)(F)F)c2)C(=S)N1c1ccc(O[C@@H]2COC[C@H]2O)c(F)c1` [Example 8, 4-(3-(3-fluoro-4-(((3R,4R)-4-hydroxytetrahydrofuran-3-yl)oxy)phenyl)-4,4-dimethyl-5-oxo-2-thioxoimidazolidin-1-yl)-2-(trifluoromethyl)benzonitrile], in series [1], the activity at 3 µM stood at 65% and the activity at 10 µM came to 99.5%. In series [2] (LNCaP), the IC50 turned out to be 21 nM.
As for `CC1(C)C(=O)N(c2ccc(C#N)c(C(F)(F)F)c2)C(=S)N1c1ccc(OCC2(N)CC2)c(F)c1` [Example 6, 4-(3-(4-((1-Aminocyclopropyl)methoxy)-3-fluorophenyl)-4,4-dimethyl-5-oxo-2-thioxoimidazolidin-1-yl)-2-(trifluoromethyl)benzonitrile], in series [1], the activity at 3 µM stood at 93.2% and the activity at 10 µM worked out at 100%. In series [3] (in vivo), the Vd/F came out at 6.02 ± 1.69 L/kg, the AUC turned out to be 16800 ± 7480 ng·h/mL, the CL/F amounted to 5.75 ± 2.44 mL/min/kg and the half-life was 13.1 ± 4.6 h. For the same compound, in series [3] (in vivo), the mean residence time (MRT) turned out to be 17.8 ± 6.2 h and the Cmax was 1200 ± 330 ng/mL. In addition, the IC50 in series [2] (LNCaP) was found to be 24 nM.
